{
  "source": "PubChem BioAssay (NCI)",
  "experiment_in_all_cases": "inhibition of tumour cell growth, NCI panel, 48 h",
  "key": {"MDA-MB-435": {"system": "MDA-MB-435"}, "OVCAR-3 ovarian": {"system": "OVCAR-3 ovarian"}, "PC-3 prostate": {"system": "PC-3 prostate"}, "SK-OV-3 ovarian": {"system": "SK-OV-3 ovarian"}, "SK-MEL-5 melanoma": {"system": "SK-MEL-5 melanoma"}, "UACC-62 melanoma": {"system": "UACC-62 melanoma"}, "UO-31 renal": {"system": "UO-31 renal"}, "M14 melanoma": {"system": "M14 melanoma"}, "NCI-H460 lung": {"system": "NCI-H460 lung"}, "OVCAR-4 ovarian": {"system": "OVCAR-4 ovarian"}},
  "note": "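A five-concentration, 48-hour dose response in 96-well plates underlies each endpoint, interpolated linearly between surrounding concentrations. The concentration for 50% growth inhibition is given as GI50. At the TGI there is no net growth.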",
  "data": [
    {"smiles": "COc1cc(/C=C2\\CCCC3=C2N=C2SC(C)=NN2C3c2cc(OC)c(OC)c(OC)c2)cc(OC)c1OC", "note": "(stereo unspecified)", "values": [
      {"measurement": "GI50", "setting": "MDA-MB-435", "value": 0.341, "unit": "µM"},
      {"measurement": "TGI", "setting": "MDA-MB-435", "value": "> 100", "unit": "µM"},
      {"measurement": "GI50", "setting": "OVCAR-3 ovarian", "value": 0.58, "unit": "µM"},
      {"measurement": "TGI", "setting": "OVCAR-3 ovarian", "value": "> 100", "unit": "µM"},
      {"measurement": "GI50", "setting": "PC-3 prostate", "value": "> 100", "unit": "µM"},
      {"measurement": "TGI", "setting": "PC-3 prostate", "value": "> 100", "unit": "µM"},
      {"measurement": "GI50", "setting": "SK-OV-3 ovarian", "value": "> 100", "unit": "µM"},
      {"measurement": "TGI", "setting": "SK-OV-3 ovarian", "value": "> 100", "unit": "µM"}
    ]},
    {"smiles": "CCC(CO)Nc1nc2c(c(=O)n(C)c(=O)n2C)n1CCO", "note": "(stereo unspecified)", "values": [
      {"measurement": "TGI", "setting": "OVCAR-3 ovarian", "value": "> 100", "unit": "µM"},
      {"measurement": "TGI", "setting": "SK-MEL-5 melanoma", "value": "> 100", "unit": "µM"},
      {"measurement": "TGI", "setting": "SK-OV-3 ovarian", "value": "> 100", "unit": "µM"},
      {"measurement": "TGI", "setting": "UACC-62 melanoma", "value": "> 100", "unit": "µM"},
      {"measurement": "TGI", "setting": "UO-31 renal", "value": "> 100", "unit": "µM"}
    ]},
    {"smiles": "COC(=O)N/N=C(\\C)CC(=O)Nc1ccc(Cl)cc1", "values": [
      {"measurement": "TGI", "setting": "M14 melanoma", "value": "> 100", "unit": "µM"},
      {"measurement": "TGI", "setting": "NCI-H460 lung", "value": "> 100", "unit": "µM"},
      {"measurement": "TGI", "setting": "OVCAR-3 ovarian", "value": "> 100", "unit": "µM"},
      {"measurement": "TGI", "setting": "SK-MEL-5 melanoma", "value": "> 100", "unit": "µM"},
      {"measurement": "TGI", "setting": "SK-OV-3 ovarian", "value": "> 100", "unit": "µM"},
      {"measurement": "TGI", "setting": "UACC-62 melanoma", "value": "> 100", "unit": "µM"},
      {"measurement": "TGI", "setting": "UO-31 renal", "value": "> 100", "unit": "µM"}
    ]},
    {"smiles": "COC(=O)CC[C@]12C[C@]13CC[C@]1(C)C4C(C)C[C@]5(CC(C)C(=O)O5)OC4CC1(C)C3CCC2C(C)(C)O", "note": "(stereo partly specified)", "values": [
      {"measurement": "TGI", "setting": "M14 melanoma", "value": "> 100", "unit": "µM"},
      {"measurement": "TGI", "setting": "NCI-H460 lung", "value": "> 100", "unit": "µM"},
      {"measurement": "TGI", "setting": "OVCAR-3 ovarian", "value": "> 100", "unit": "µM"},
      {"measurement": "TGI", "setting": "OVCAR-4 ovarian", "value": "> 100", "unit": "µM"},
      {"measurement": "TGI", "setting": "SK-MEL-5 melanoma", "value": "> 100", "unit": "µM"},
      {"measurement": "TGI", "setting": "SK-OV-3 ovarian", "value": "> 100", "unit": "µM"},
      {"measurement": "TGI", "setting": "UO-31 renal", "value": "> 100", "unit": "µM"}
    ]},
    {"smiles": "COc1ccc2c(c1)CCc1c-2n[nH]c1-c1[nH]nc2c1CCc1cc(OC)ccc1-2", "values": [
      {"measurement": "TGI", "setting": "M14 melanoma", "value": "> 100", "unit": "µM"},
      {"measurement": "TGI", "setting": "NCI-H460 lung", "value": "> 100", "unit": "µM"},
      {"measurement": "TGI", "setting": "SK-MEL-5 melanoma", "value": "> 100", "unit": "µM"},
      {"measurement": "TGI", "setting": "SK-OV-3 ovarian", "value": "> 100", "unit": "µM"},
      {"measurement": "TGI", "setting": "UACC-62 melanoma", "value": "> 100", "unit": "µM"},
      {"measurement": "TGI", "setting": "UO-31 renal", "value": "> 100", "unit": "µM"}
    ]},
    {"smiles": "CC(=O)[CH-]C(=O)c1ccccc1.CC(=O)[CH-]C(=O)c1ccccc1.[O-]c1ccc2c(c1)OCO2.[O-]c1ccc2c(c1)OCO2.[Ti+4]", "values": [
      {"measurement": "GI50", "setting": "M14 melanoma", "value": 20.2, "unit": "µM"},
      {"measurement": "TGI", "setting": "M14 melanoma", "value": 44.4, "unit": "µM"},
      {"measurement": "GI50", "setting": "NCI-H460 lung", "value": 21.1, "unit": "µM"},
      {"measurement": "TGI", "setting": "NCI-H460 lung", "value": 72.6, "unit": "µM"},
      {"measurement": "GI50", "setting": "OVCAR-3 ovarian", "value": 26.8, "unit": "µM"},
      {"measurement": "TGI", "setting": "OVCAR-3 ovarian", "value": "> 100", "unit": "µM"},
      {"measurement": "GI50", "setting": "OVCAR-4 ovarian", "value": 31.8, "unit": "µM"},
      {"measurement": "TGI", "setting": "OVCAR-4 ovarian", "value": "> 100", "unit": "µM"},
      {"measurement": "GI50", "setting": "SK-MEL-5 melanoma", "value": 29.1, "unit": "µM"},
      {"measurement": "TGI", "setting": "SK-MEL-5 melanoma", "value": 78.6, "unit": "µM"},
      {"measurement": "GI50", "setting": "SK-OV-3 ovarian", "value": 30.1, "unit": "µM"},
      {"measurement": "TGI", "setting": "SK-OV-3 ovarian", "value": "> 100", "unit": "µM"},
      {"measurement": "GI50", "setting": "UACC-62 melanoma", "value": 47.5, "unit": "µM"},
      {"measurement": "TGI", "setting": "UACC-62 melanoma", "value": "> 100", "unit": "µM"},
      {"measurement": "GI50", "setting": "UO-31 renal", "value": 35.9, "unit": "µM"},
      {"measurement": "TGI", "setting": "UO-31 renal", "value": 94.3, "unit": "µM"}
    ]},
    {"smiles": "CO[C@@]1(c2ccccc2)O[C@H]2OCCC2[C@H]1c1ccc(Cl)cc1", "note": "(stereo partly specified)", "values": [
      {"measurement": "TGI", "setting": "M14 melanoma", "value": "> 100", "unit": "µM"},
      {"measurement": "TGI", "setting": "NCI-H460 lung", "value": 57.8, "unit": "µM"},
      {"measurement": "TGI", "setting": "OVCAR-3 ovarian", "value": 49.7, "unit": "µM"},
      {"measurement": "TGI", "setting": "OVCAR-4 ovarian", "value": 91.1, "unit": "µM"},
      {"measurement": "TGI", "setting": "SK-MEL-5 melanoma", "value": 33.1, "unit": "µM"},
      {"measurement": "TGI", "setting": "UACC-62 melanoma", "value": "> 100", "unit": "µM"},
      {"measurement": "TGI", "setting": "UO-31 renal", "value": 90.4, "unit": "µM"}
    ]}
  ]
}
